# Experimental data taken from patent US11584734B2, “Tricyclic compounds as histone methyltransferase inhibitors” (GLOBAL BLOOD THERAPEUTICS, INC., priority 2017, dated 2023).
# Structures can show the parent of a compound that is named as a salt.
# Molecular target: T1, G9a (Homo sapiens, UniProt Q96KQ7)
# T1 sequence (Q96KQ7 1-1210): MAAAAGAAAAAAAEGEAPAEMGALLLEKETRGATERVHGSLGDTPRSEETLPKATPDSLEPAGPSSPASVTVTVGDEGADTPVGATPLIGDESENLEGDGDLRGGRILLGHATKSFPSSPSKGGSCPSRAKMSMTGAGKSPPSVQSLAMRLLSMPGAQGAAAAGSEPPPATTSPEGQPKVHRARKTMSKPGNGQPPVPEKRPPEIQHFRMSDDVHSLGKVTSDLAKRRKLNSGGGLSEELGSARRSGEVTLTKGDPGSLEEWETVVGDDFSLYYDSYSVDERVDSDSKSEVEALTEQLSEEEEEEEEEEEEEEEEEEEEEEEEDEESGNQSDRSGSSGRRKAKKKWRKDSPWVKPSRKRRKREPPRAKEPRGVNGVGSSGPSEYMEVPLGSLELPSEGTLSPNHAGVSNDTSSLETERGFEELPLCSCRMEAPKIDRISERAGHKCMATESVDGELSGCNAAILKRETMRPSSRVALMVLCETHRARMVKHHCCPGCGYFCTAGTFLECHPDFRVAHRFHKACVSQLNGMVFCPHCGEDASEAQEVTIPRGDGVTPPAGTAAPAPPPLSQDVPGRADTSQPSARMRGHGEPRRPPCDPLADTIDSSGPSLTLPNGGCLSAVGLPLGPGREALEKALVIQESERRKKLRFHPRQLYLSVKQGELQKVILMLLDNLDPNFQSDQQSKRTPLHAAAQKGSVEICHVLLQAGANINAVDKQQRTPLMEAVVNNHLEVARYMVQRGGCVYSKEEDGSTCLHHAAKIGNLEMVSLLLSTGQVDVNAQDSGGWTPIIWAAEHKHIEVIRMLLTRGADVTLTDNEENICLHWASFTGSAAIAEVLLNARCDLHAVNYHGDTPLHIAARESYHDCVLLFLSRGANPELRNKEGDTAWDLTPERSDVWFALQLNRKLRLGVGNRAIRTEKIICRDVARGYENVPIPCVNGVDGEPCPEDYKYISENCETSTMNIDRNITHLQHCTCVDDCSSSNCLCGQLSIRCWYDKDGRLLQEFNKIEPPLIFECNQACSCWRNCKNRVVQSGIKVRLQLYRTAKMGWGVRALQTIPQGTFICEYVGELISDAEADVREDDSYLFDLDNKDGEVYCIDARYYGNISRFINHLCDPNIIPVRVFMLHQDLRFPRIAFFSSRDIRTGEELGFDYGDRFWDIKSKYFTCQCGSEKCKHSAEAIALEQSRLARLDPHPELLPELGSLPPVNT
# Experiment: G9a AlphaLISA enzymatic activity assay
# Type: biochemical
# Conditions: negative log of IC50 in molar, 0.15 nM G9a, 15 uM S-adenosyl-methionine, 100 nM biotinylated histone 3 peptide (1-21)
# Excerpt: The G9a AlphaLISA assay was used to detect the methyl modifications of a biotinylated histone H3 peptide by the compounds. These modifications are done by the histone methyl transferase activity of the G9a enzyme. The assay consists of reading a chemiluminescent signal at 615 nm; this signal is generated by a laser excitation at 680 nm that transfers a reactive singlet oxygen between the donor beads and acceptor beads. Donor beads are streptavidin conjugated and bind to the biotin on the peptide. Acceptor beads are conjugated with an antibody that recognizes the specific G9a methyl mark on the peptide. If there is a methyl mark on the peptide, the acceptor beads will bind to the peptide. Upon binding, the acceptor beads will be in close proximity (<200 nm) of the donor beads and when the donor beads are excited, the transfer of the oxygen can occur and a strong signal will be generated. If there is no methyl mark, the interaction between beads will not occur and signal will be at background levels.
# For the assay, the following buffer was used to set up reactions: 50 mM Tris-HCl pH9, 50 mM NaCl, 0.01% Tween-20 and 1 mM DTT (added fresh prior to starting the reactions). […] The reaction is incubated at rt for 1 hour and subsequently quenched by the addition of the acceptor beads (anti-H3k9me2 AlphaLISA acceptor beads, PerkinElmer #AL117) at a final concentration of 20 ug/mL. The acceptor beads are incubated for 1 hour. After 1 hour, the donor beads are added at a final concentration of 20 ug/mL (Alpha Streptavidin donor beads, PerkinElmer #6760002). Donor beads are incubated for 0.5 hours. Both donor and acceptor beads are resuspended in AlphaLISA 5X Epigenetics Buffer 1 Kit (PerkinElmer #AL008) prior to addition to the reaction. All manipulations and incubations with the donor and acceptor beads are done in subdued light. Signal is detected in an EnVision plate reader in Alpha mode. See ACS Med Chem Lett. 2014; 5(2):205-9.
# Percent inhibition was calculated for each compound dilution and the concentration that produced 50% inhibition was calculated. This value is presented as the pIC50, which is the negative log of the IC50 value in molar.
row,Structure (SMILES),IC50 [nM]
1,"Oc1cc2c(NCC3CC3)c3c(nc2cc1OCCCN1CCCC1)CCC3 [Example 2, dihydrochloride]",158
2,"CCNc1c2c(nc3cc(OCCCN4CCCC4)c(OC)cc13)CC(C)(C)C2 [Example 6, N-ethyl-7-methoxy-2,2-dimethyl-6-[3-(pyrrolidin-1-yl)propoxy]-1H,2H,3H-cyclopenta[b]quinolin-9-amine]",38
3,"COc1cc2c(NC(C)C)c3c(nc2cc1OCCCN1CCCC1)CC(C)(C)C3 [Example 7, 7-methoxy-2,2-dimethyl-N-(propan-2-yl)-6-[3-(pyrrolidin-1-yl)propoxy]-1H,2H,3H-cyclopenta[b]quinolin-9-amine]",30.9
4,"COCCNc1c2c(nc3cc(OCCCN4CCCC4)c(OC)cc13)CC(C)(C)C2 [Example 8, 7-methoxy-N-(2-methoxyethyl)-2,2-dimethyl-6-[3-(pyrrolidin-1-yl)propoxy]-1H,2H,3H-cyclopenta[b]quinolin-9-amine]",51.3
5,"COc1cc2c(NC[C@H]3CCCO3)c3c(nc2cc1OCCCN1CCCC1)CCC3 [Example 18, 7-methoxy-N-{[(2R)-oxolan-2-yl]methyl}-6-[3-(pyrrolidin-1-yl)propoxy]-1H,2H,3H-cyclopenta[b]quinolin-9-amine]",21.9
6,"CNc1c2c(nc3cc(OCCCN4CCCC4)c(OC)cc13)CCC2(C)C [Example 20, 7-methoxy-N,1,1-trimethyl-6-[3-(pyrrolidin-1-yl)propoxy]-1H,2H,3H-cyclopenta[b]quinolin-9-amine]",72.4
7,"CCNc1c2c(nc3cc(OCCCN4CCCC4)c(OC)cc13)CCC2(C)C [Example 21, N-ethyl-7-methoxy-1,1-dimethyl-6-[3-(pyrrolidin-1-yl)propoxy]-1H,2H,3H-cyclopenta[b]quinolin-9-amine]",83.2
8,"COc1cc2c(NC(C)C)c3c(nc2cc1OCCCN1CCCC1)CCC3(C)C [Example 22, 7-methoxy-1,1-dimethyl-N-(propan-2-yl)-6-[3-(pyrrolidin-1-yl)propoxy]-1H,2H,3H-cyclopenta[b]quinolin-9-amine]",174
9,"COCCNc1c2c(nc3cc(OCCCN4CCCC4)c(OC)cc13)CCC2(C)C [Example 23, 7-methoxy-N-(2-methoxyethyl)-1,1-dimethyl-6-[3-(pyrrolidin-1-yl)propoxy]-1H,2H,3H-cyclopenta[b]quinolin-9-amine]",468
10,"CNc1c2c(nc3cc(OCCCN4CCCC4)c(OC)cc13)CC(C)(C)C2 [Example 24, 7-methoxy-N,2,2-trimethyl-6-[3-(pyrrolidin-1-yl)propoxy]-1H,2H,3H-cyclopenta[b]quinolin-9-amine]",24
11,"COc1cc2c(NC[C@@H]3CCCO3)c3c(nc2cc1OCCCN1CCCC1)CCC3 [Example 25, 7-methoxy-N-{[(2S)-oxolan-2-yl]methyl}-6-[3-(pyrrolidin-1-yl)propoxy]-1H,2H,3H-cyclopenta[b]quinolin-9-amine]",15.5
12,"COc1cc2c(NC[C@@H]3COCCO3)c3c(nc2cc1OCCCN1CCCC1)CCC3 [Example 26, N-{[(2R)-1,4-dioxan-2-yl]methyl}-7-methoxy-6-[3-(pyrrolidin-1-yl)propoxy]-1H,2H,3H-cyclopenta[b]quinolin-9-amine]",11.2
13,"COc1cc2c(NC[C@H]3COCCO3)c3c(nc2cc1OCCCN1CCCC1)CCC3 [Example 27, N-{[(2S)-1,4-dioxan-2-yl]methyl}-7-methoxy-6-[3-(pyrrolidin-1-yl)propoxy]-1H,2H,3H-cyclopenta[b]quinolin-9-amine]",12.6
14,"COc1cc2c(NC[C@H]3CCOC3)c3c(nc2cc1OCCCN1CCCC1)CCC3 [Example 28, 7-methoxy-N-{[(3R)-oxolan-3-yl]methyl}-6-[3-(pyrrolidin-1-yl)propoxy]-1H,2H,3H-cyclopenta[b]quinolin-9-amine]",10
15,"COc1cc2c(NC[C@@H]3CCOC3)c3c(nc2cc1OCCCN1CCCC1)CCC3 [Example 29, 7-methoxy-N-{[(3S)-oxolan-3-yl]methyl}-6-[3-(pyrrolidin-1-yl)propoxy]-1H,2H,3H-cyclopenta[b]quinolin-9-amine]",6.03

# Next, values leading:
row,IC50 [nM],Structure (SMILES)
1,6.17,COC[C@H](C)Nc1c2c(nc3cc(OCCCN4CCCC4)c(OC)cc13)CCC2 [Example 4]
2,12,"COc1cc2c(NCc3ccn[nH]3)c3c(nc2cc1OCCCN1CCCC1)CCC3 [Example 9, 7-methoxy-N-[(1H-pyrazol-5-yl)methyl]-6-[3-(pyrrolidin-1-yl)propoxy]-1H,2H,3H-cyclopenta[b]quinolin-9-amine]"
3,6.31,"CCOCCNc1c2c(nc3cc(OCCCN4CCCC4)c(OC)cc13)CCC2 [Example 10, N-(2-ethoxyethyl)-7-methoxy-6-[3-(pyrrolidin-1-yl)propoxy]-1H,2H,3H-cyclopenta[b]quinolin-9-amine]"
4,17.4,"CCOCCCNc1c2c(nc3cc(OCCCN4CCCC4)c(OC)cc13)CCC2 [Example 11, N-(3-ethoxypropyl)-7-methoxy-6-[3-(pyrrolidin-1-yl)propoxy]-1H,2H,3H-cyclopenta[b]quinolin-9-amine]"
5,8.32,"CCCOCCCNc1c2c(nc3cc(OCCCN4CCCC4)c(OC)cc13)CCC2 [Example 12, 7-methoxy-N-(3-propoxypropyl)-6-[3-(pyrrolidin-1-yl)propoxy]-1H,2H,3H-cyclopenta[b]quinolin-9-amine]"
6,31.6,"COc1cc2c(NCCOC(C)C)c3c(nc2cc1OCCCN1CCCC1)CCC3 [Example 13, 7-methoxy-N-[2-(propan-2-yloxy)ethyl]-6-[3-(pyrrolidin-1-yl)propoxy]-1H,2H,3H-cyclopenta[b]quinolin-9-amine]"
7,26.3,"COc1cc2c(NC[C@@H](C)OC)c3c(nc2cc1OCCCN1CCCC1)CCC3 [Example 14, 7-methoxy-N-[(2R)-2-methoxypropyl]-6-[3-(pyrrolidin-1-yl)propoxy]-1H,2H,3H-cyclopenta[b]quinolin-9-amine]"
8,22.4,"COc1cc2c(NC[C@H](C)OC)c3c(nc2cc1OCCCN1CCCC1)CCC3 [Example 15, 7-methoxy-N-[(2S)-2-methoxypropyl]-6-[3-(pyrrolidin-1-yl)propoxy]-1H,2H,3H-cyclopenta[b]quinolin-9-amine]"
9,37.2,"CCCOCCNc1c2c(nc3cc(OCCCN4CCCC4)c(OC)cc13)CCC2 [Example 16, 7-methoxy-N-(2-propoxyethyl)-6-[3-(pyrrolidin-1-yl)propoxy]-1H,2H,3H-cyclopenta[b]quinolin-9-amine]"
10,19.5,"COc1cc2c(NCCCOC(C)C)c3c(nc2cc1OCCCN1CCCC1)CCC3 [Example 17, 7-methoxy-N-[3-(propan-2-yloxy)propyl]-6-[3-(pyrrolidin-1-yl)propoxy]-1H,2H,3H-cyclopenta[b]quinolin-9-amine]"
11,7.94,"CNc1c2c(nc3cc(OCCCN4CCCC4)c(OC)cc13)CCCCC2 [Example 19, 2-methoxy-N-methyl-3-[3-(pyrrolidin-1-yl)propoxy]-6H,7H,8H,9H,10H-cyclohepta[b]quinolin-11-amine]"
